“Also recorded” adds a separate entry of the source.
Key:
[1] = system: HCT116 colon cancer cells; experiment: MTT cell viability assay, HCT116; format: cell-based, human
Protocol: (§1) Aaptamine was tested against HCT116 colon cancer cells and cell viability was assessed after 48 h using an MTT (3-(4,5-dimethyl dimethylthiazol-2-yl)-2,5-diphenyltetrazolium bromide) assay. […] The results agreed with the findings of Kobayashi et al. that aaptamine at concentrations of 20–50 µM increased the expression of the cyclin-dependent kinase inhibitor p21, a protein known to act as a negative regulator of cell cycle progression, thus preventing cell proliferation. […] To alternatively explain the activity of aaptamine, we tested the compound for its ability to inhibit the chymotrypsin-like activity of a purified 20S proteasome from human erythrocytes. Proteasome inhibitors are validated anticancer agents. Aaptamine was able to inhibit the enzyme activity by 41% at 50 µM (Figure 2b). […] In our study, aaptamine had similar IC50 values for cancer cell growth inhibition and proteasome inhibition in vitro (~50 µM).
Human colon carcinoma cells (HCT116) were cultured in Dulbecco’s modified Eagle’s medium (DMEM, Invitrogen, MA, USA), supplemented with 10% fetal bovine serum (FBS, Sigma-Aldrich, MO, USA) and 1% antibiotic-antimycotic (Invitrogen, MA, USA) humidified at 37 °C with 5% CO2. […] Detection was performed using a SpectraMax M5 spectrometer (Molecular Devices, CA, USA) at 570 nm and cell viability was calculated and expressed relative to the vehicle control.

[2] = target: T1, purified 20S proteasome from human erythrocytes (Homo sapiens, UniProt P28074); experiment: 20S proteasome chymotrypsin-like activity assay (Suc-LLVY-AMC); format: biochemical
T1 construct: purified 20S proteasome from human erythrocyte; purchased Enzo Life Sciences; host or cells: human erythrocytes (tissue-purified)
Protocol: as §1
The 20S proteasome assay kit from Enzo Life Sciences (NY, USA) is a fluorogenic, non-radioactive assay designed to measure the chymotrypsin-like protease activity of purified 20S proteasome from human erythrocyte. […] The fluorescence was then measured at an excitation of 360 nm and emission of 460 nm using a SpectraMax M5 plate reader (Molecular Device). The data were recorded every 2 min for 20 min. […]

[3] = system: Saccharomyces cerevisiae (BY4741); experiment: Yeast growth inhibition assay; format: cell-based; settings: up to 50 µM, 24 h
Text: Each treatment was done in triplicate.

ADRA2C = ADRA2C (Homo sapiens, UniProt P18825); experiment: PathHunter β-arrestin assay, antagonist mode; format: cell-based
Protocol: (§2) The assay was performed by DiscoverX Corporation (Fremont, CA) using PathHunter β -arrestin enzyme fragment complementation (EFC) technology, in a similar way to that described elsewhere [35, 36]. The PathHunter cell lines were taken from freezer stocks according to standard procedures. A total of 20 µL of cells were seeded into white 384-well plates and incubated at 37 °C for the appropriate time prior to testing.
(§3) The assays were performed at 10-point concentrations using three-fold serial dilutions in duplicate. For all the assay formats, the final assay vehicle concentration was 1%.

DRD2S = DRD2S (Homo sapiens, UniProt P14416); experiment: PathHunter β-arrestin assay, antagonist mode; format: cell-based
Protocol: Aaptamine (20 µM) was profiled in gpcrMAX panel biosensor assays (in agonist and antagonist modes) against a panel of 168 GPCRs. The assay was performed by DiscoverX Corporation (Fremont, CA) using PathHunter β -arrestin enzyme fragment complementation (EFC) technology, in a similar way to that described elsewhere. The PathHunter cell lines were taken from freezer stocks according to standard procedures. A total of 20 µL of cells were seeded into white 384-well plates and incubated at 37 °C for the appropriate time prior to testing.
For antagonist determination, PathHunter cells were preincubated with aaptamine followed by the addition of an agonist. In this assay format, the standard agonist was added at an EC80 concentration. To the plate that contained the cells, 5 µL of the 5X sample was added and incubated for 30 min at 37 °C or room temperature. After the incubation period, 5 µL of the 6X EC80 agonist in an assay buffer was added to the cells and incubated for additional 90 or 180 min at 37 °C or room temperature.
Hit validation was performed by subjecting the aaptamine to an agonist, antagonist, and positive allosteric modulation (PAM) secondary screen utilizing thirteen GPCR biosensor assays (Arrestin) against the following targets: ADRA2A, ADRA2C, ADRB2, CCR1, CCR3, CXCR3, CXCR7, DRD2L, DRD2S, DRD4, HTR1E, OPRK1, and SSTR1. […]

DRD2L = DRD2L (Homo sapiens, UniProt P14416); experiment: PathHunter β-arrestin assay, antagonist mode; format: cell-based
Protocol: as §2, §3

CXCR7 = CXCR7 (Homo sapiens, UniProt P25106); experiment: PathHunter β-arrestin assay, agonist mode; format: cell-based
Protocol: For agonist determination, aaptamine was incubated with PathHunter cell lines to induce a response. To increase the concentration, intermediate dilution from 20 µM of aaptamine was performed to generate a 5X sample in an assay buffer. Then, 5 µL of 5X sample was added to the plate with PathHunter cells and incubated for 90 or 180 min at 37 °C or room temperature. The percentage activity of aaptamine was calculated following this formula: % activity = 100% × (mean RLU of test sample − mean RLU of vehicle control)/(mean MAX control ligand − mean RLU of vehicle control).
as §3

HTR1E = HTR1E (Homo sapiens, UniProt P28566); experiment: PathHunter β-arrestin assay, positive allosteric modulation (PAM) mode; format: cell-based; settings: dose-response, control agonist at EC20
Protocol: as §3
(§4) For PAM assays, the cells were preincubated with the sample followed by agonist induction at the EC20 concentration. To the cells, 5 µL of 5X sample was added and incubated for 30 min at 37 °C or room temperature. Following the incubation period, 5 µL of the 6X EC20 agonist prepared in an assay buffer was added to the cells and incubated for 90 or 180 min at 37 °C or room temperature.

OPRK1 = OPRK1 (Homo sapiens, UniProt P41145); experiment: as above; format: cell-based; settings: dose-response, control agonist at EC20
Protocol: as §3, §4

SSTR1 = SSTR1 (Homo sapiens, UniProt P30872); experiment: as above; format: cell-based; settings: dose-response, control agonist at EC20
Protocol: as §3, §4

[4] = target: mu opioid receptor (μ-OR); set-up: method as in PMID 27744679; settings: read-out: EC50 agonist, mu opioid receptor; cited from earlier work
HeLa cells = system: HeLa cells; set-up: method as in PMID 20451377; settings: read-out: cytotoxicity against HeLa cells IC50; cited from earlier work
p21 = system: p21; set-up: method as in doi:10.1016/j.tetlet.2007.01.113; settings: cited from earlier work
[5] = dose-response analysis, read-out: Dose-Response Maximal Response, % Inhibition

Sequence of CXCR7 (P25106 whole entry): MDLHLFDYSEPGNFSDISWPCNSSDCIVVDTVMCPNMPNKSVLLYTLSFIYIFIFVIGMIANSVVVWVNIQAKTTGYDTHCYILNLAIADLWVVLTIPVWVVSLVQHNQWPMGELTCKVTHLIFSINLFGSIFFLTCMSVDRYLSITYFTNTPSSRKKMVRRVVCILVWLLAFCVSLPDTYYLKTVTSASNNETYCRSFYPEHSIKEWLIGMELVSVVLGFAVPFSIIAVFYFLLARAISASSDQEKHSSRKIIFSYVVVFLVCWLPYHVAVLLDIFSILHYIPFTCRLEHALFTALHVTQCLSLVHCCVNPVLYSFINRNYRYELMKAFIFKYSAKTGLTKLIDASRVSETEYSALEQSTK
Sequence of DRD2L (P14416 whole entry): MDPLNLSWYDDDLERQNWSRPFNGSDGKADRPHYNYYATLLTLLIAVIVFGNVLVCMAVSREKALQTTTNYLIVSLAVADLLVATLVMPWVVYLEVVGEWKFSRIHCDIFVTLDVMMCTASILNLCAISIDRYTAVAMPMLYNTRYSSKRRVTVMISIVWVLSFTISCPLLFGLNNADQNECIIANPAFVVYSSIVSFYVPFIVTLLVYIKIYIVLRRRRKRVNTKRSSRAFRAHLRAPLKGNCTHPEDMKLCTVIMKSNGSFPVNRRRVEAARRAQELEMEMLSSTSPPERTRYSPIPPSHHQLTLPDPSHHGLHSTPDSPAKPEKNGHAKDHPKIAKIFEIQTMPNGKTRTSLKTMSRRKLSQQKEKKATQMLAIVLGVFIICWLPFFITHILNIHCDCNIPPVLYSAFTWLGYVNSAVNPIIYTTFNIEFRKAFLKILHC
Sequence of SSTR1 (P30872 whole entry): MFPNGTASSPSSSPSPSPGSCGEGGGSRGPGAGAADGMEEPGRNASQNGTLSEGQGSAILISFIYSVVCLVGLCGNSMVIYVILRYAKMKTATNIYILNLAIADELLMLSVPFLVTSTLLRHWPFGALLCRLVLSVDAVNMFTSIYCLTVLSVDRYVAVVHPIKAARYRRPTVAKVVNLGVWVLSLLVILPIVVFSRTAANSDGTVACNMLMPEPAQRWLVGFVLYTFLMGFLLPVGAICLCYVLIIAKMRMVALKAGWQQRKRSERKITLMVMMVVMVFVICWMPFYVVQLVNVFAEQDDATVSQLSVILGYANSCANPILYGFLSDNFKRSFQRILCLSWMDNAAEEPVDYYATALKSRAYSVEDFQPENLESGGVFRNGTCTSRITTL
Sequence of OPRK1 (P41145 whole entry): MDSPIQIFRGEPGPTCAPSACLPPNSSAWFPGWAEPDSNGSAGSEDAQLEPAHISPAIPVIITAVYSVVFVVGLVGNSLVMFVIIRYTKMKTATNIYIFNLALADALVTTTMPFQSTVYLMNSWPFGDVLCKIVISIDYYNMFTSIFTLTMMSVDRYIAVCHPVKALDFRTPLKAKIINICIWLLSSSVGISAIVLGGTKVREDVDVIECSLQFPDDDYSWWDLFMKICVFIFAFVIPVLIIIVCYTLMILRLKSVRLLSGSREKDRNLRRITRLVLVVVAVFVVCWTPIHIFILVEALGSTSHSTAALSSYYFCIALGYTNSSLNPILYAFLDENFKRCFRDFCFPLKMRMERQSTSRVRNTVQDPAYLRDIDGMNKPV
Sequence of ADRA2C (P18825 whole entry): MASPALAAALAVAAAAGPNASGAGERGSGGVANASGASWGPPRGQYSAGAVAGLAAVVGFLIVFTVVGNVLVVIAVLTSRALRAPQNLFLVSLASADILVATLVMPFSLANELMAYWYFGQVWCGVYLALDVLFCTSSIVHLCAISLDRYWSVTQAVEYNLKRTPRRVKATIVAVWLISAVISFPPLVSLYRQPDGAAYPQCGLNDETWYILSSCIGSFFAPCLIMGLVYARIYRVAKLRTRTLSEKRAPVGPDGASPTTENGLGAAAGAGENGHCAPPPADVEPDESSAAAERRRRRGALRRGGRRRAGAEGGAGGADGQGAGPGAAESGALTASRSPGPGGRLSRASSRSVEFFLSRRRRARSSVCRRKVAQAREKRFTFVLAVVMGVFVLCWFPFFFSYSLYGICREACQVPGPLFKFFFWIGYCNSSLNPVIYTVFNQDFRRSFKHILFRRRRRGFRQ
Sequence of DRD2S (P14416 1-414 isoform P14416-2): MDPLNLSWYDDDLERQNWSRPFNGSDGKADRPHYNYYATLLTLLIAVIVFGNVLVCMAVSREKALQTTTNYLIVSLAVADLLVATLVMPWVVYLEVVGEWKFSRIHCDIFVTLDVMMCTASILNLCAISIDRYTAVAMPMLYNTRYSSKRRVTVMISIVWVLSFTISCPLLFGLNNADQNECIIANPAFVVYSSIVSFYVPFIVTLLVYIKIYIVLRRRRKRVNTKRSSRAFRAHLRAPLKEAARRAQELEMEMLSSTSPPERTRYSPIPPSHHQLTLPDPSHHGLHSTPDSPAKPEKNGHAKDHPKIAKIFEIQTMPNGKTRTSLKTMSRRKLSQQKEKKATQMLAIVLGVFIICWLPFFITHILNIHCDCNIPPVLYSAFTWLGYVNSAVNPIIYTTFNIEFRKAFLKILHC
Sequence of HTR1E (P28566 whole entry): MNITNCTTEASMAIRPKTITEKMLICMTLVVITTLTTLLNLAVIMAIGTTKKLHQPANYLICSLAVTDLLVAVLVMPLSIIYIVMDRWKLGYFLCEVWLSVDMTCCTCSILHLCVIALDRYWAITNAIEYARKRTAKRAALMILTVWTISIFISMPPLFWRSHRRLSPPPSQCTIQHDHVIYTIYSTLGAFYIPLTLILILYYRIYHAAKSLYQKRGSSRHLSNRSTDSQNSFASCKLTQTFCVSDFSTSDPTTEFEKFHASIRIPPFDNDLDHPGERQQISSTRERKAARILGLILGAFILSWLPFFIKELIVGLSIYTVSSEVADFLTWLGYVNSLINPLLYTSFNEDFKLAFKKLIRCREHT

COc1cc2ccnc3c2c(c1OC)NC=C3 [aaptamine]
reduction of viability of HCT116 ([1]; 50 µM (highest concentration tested), 48 h, MTT): 50%
IC50 ([1]; Homo sapiens, HCT-116, HCT116, 48 h, read-out: IC50 cancer cell growth inhibition): ~50 µM
inhibition at 50 µM ([2]; 50 µM, 10 min preincubation, read-out: inhibition of enzyme activity (chymotrypsin-like)): 41%
IC50 ([2]; read-out: IC50 proteasome inhibition in vitro): ~50 µM
growth inhibitory activity [3]: did not observe growth inhibitory activity
Emax (ADRA2C; [5]): 104%
IC50 (ADRA2C; dose-response, antagonist mode): 11.9 µM
Emax (DRD2S; [5]): 74.4%
IC50 (DRD2S; dose-response, antagonist mode): 25.7 µM
Emax (DRD2L; [5]): 73.7%
IC50 (DRD2L; dose-response, antagonist mode): 38.7 µM
Dose-Response Maximal Response, % Activation (CXCR7; dose-response analysis): 122.57%
Emax (CXCR7; dose-response analysis, read-out: Dose-Response Maximal Response, % Activation): 123%
EC50 (CXCR7; dose-response, agonist mode): 6.2 µM
validation of potentiator hit under PAM conditions (HTR1E): false positives; also recorded: did not validate
validation of potentiator hit under PAM conditions (OPRK1): false positives; also recorded: did not validate
validation of potentiator hit under PAM conditions (SSTR1): false positives; also recorded: did not validate
EC50 [4]: 10.1 µM
IC50 (HeLa cells): 66 µM
concentrations that increased the expression of p21 (p21): 20 to 50 µM

Source: paper PMC8466755, “GPCR Pharmacological Profiling of Aaptamine from the Philippine Sponge Stylissa sp. Extends Its Therapeutic Potential for Noncommunicable Diseases” (Molecules, 2021)
